From paper PMC5851651, “Population-specific design of de-immunized protein biotherapeutics” (PLoS Computational Biology, 2018)

How the values were obtained:
[1] = tested on: DRB1*15:01, DRB1*03:01 and DRB1*07:01; test: Experimental immunogenicity score: relative HLA binding combined across alleles, weighted by allele frequency; parameters: species or system human; key: allele-frequency-weighted sum of binding, % of control peptide signal; settings: for Difference to WT (Experimental Score): per peptide against wild-type counterpart; for Experimental Score: per peptide, weights DRB1*15:01 0.162, DRB1*07:01 0.146, DRB1*03:01 0.143
Description: (§1) To test the designs, we synthesized twenty overlapping 15-mer peptides containing the introduced mutations and their wild-type counterparts. The peptides maximally covered the predicted epitopes around the mutations of all designed constructs that contained one and two mutations (Supplementary S2 Table). The affinity of these peptides to the three HLA alleles was measured at time zero and after 24 hours (Methods, Supplementary S3 and S4 Tables). We linearly combined the measured relative affinity scores across HLA alleles weighted by their allele frequencies for each peptide respectively to produce a score that approximates the overall immunogenicity (Fig 5A). Results are presented for measurements taken at time point zero. […] Overall, the measured and predicted immunogenicity of the tested peptides correlated well with r = 0.76 (CI95 = [0.48, 0.91], t = 4.885, df = 17, p-value = 1.4e-4; Fig 5A). Next, we compared the predicted and measured gain or loss in immunogenicity for the whole region by reconstructing the targeted region using overlapping peptides. The measured relative scores were linearly combined (as previously) and then normalized to the number of overlapping peptides used in the reconstruction (Fig 5B). The difference in the measured scores between the wild type and mutant regions can be thought of as a proxy for gain or loss in immunogenicity and correlated well to the predicted changes (r = 0.86, CI95 = [0.40, 0.97], t = 4.136, df = 6, p-value = 6.1e-3; Fig 5B).
Fig 5 (A) Correlation of experimental and predicted immunogenicity of each peptide. The experimental immunogenicity score of a peptide is defined as the linear combination of the individual experimentally determined relative HLA binding affinity of each HLA allele h ∈ H weighted by the HLA allele frequency. (B) Correlation of experimental and predicted immunogenicity of the whole redesigned region. The summarized immunogenicity score of the whole region is the linear combination of the overlapping peptides used to reconstruct the region, normalized by total number of peptides used. The predicted immunogenicity scores per peptide were computed according to our immunogenicity objective function. The red lines are a fitted linear regression and the red tubes represent their 95-confidence interval.
(§2) In order to experimentally verify our in silico predictions for Factor VIII, we utilized the commercial REVEAL HLA-Peptide binding assay of ProImmune (www.proimmune.com). Peptides were synthesized using the PEPscreen custom library synthesis method, yielding high purity peptides for experimental analysis. HLA-peptide binding was assessed for the three HLA-DRB1 alleles used in this study (DRB1*15:01, DRB1*03:01 and DRB1*07:01). In short, the method compares the affinity of the studied peptide to the affinity of a high-affinity control peptide. Each peptide is then scored for binding to a certain HLA molecule relative to the score of the control peptide and reported as the percentage of the signal generated by the control peptide.

DRB1*15:01 = biological target: T1, DRB1*15:01 (Homo sapiens, UniProt P01903+P01911); test: REVEAL HLA-Peptide binding assay (ProImmune); settings: score relative to high-affinity control peptide, percentage of the control signal
T1 construct: purchased ProImmune
Description: as §1, §2

DRB1*03:01 = biological target: T2, DRB1*03:01 (Homo sapiens, UniProt P01903+P01911, A100K/A102G/A103R/A169T/F55Y/I96L/K41T/L162R/M171V/P40S/Q125H/Q178H/Q39Y/R42S/S66N/T106N/T262R/W38E/Y61H); test: REVEAL HLA-Peptide binding assay (ProImmune); settings: score relative to high-affinity control peptide, percentage of the control signal
T2 construct: purchased ProImmune
Description: as §1, §2

DRB1*07:01 = DRB1*07:01 (Homo sapiens, UniProt P01903+P01911, A100R/A102G/A103Q/D57E/D86V/E43K/F76Y/K127E/L162R/M171V/P40G/Q125H/Q99D/R33Q/R42Y/R54Q/S133A/S66F/T210M/V115G/Y107V/Y59L/Y89S); test: REVEAL HLA-Peptide binding assay (ProImmune); settings: score relative to high-affinity control peptide, percentage of the control signal
Description: as §1, §2

[2] = time 0 (H0), listed as VNSLDPPLFTRYLRI
[3] = time 0 (H0), listed as VNSLDPPLLTRYLRI
[4] = time 0 (H0), listed as VNSLDPPLTTRYLRI
[5] = time 0 (H0), listed as VNSLDPPLYTRYLRI
[6] = time 0 (H0), listed as YTRYLRIHPQSWEHQ

Row | Sequence | DRB1*15:01 (DRB1*15:01; after 24 hours (H24)) [%] | DRB1*15:01 (DRB1*15:01; time 0 (H0)) [%] | DRB1*03:01 (DRB1*03:01; after 24 hours (H24)) [%] | DRB1*03:01 (DRB1*03:01; time 0 (H0)) [%] | DRB1*07:01 (DRB1*07:01; after 24 hours (H24)) [%] | DRB1*07:01 (DRB1*07:01; time 0 (H0)) [%] | Difference to WT (Experimental Score) ([1]; after 24 hours (H24)) | Experimental Score ([1]; after 24 hours (H24)) | Difference to WT (Experimental Score) ([1]; time 0 (H0)) | Experimental Score ([1]; time 0 (H0)) | other results
1 | VNSLDPPLFTRYLRI [Design M-1, peptide covering L2321F] | 0.000 | 0.427 | 0.165 | 0.165 | 0.497 | 6.490 | 0.042 | 0.096 | -0.356 | 1.040 | DRB1*15:01 (DRB1*15:01; [2]): 0.4%; DRB1*03:01 (DRB1*03:01; [2]): 0.2%; DRB1*07:01 (DRB1*07:01; [2]): 6.5%
2 | VNSLDPPLLTRYLRI [WT-1, wild-type peptide of Factor VIII C2 domain, reference compound] | 0.000 | 7.274 | 0.000 | 0.697 | 0.370 | 0.810 | – | 0.054 | – | 1.396 | DRB1*15:01 (DRB1*15:01; [3]): 7.3%; DRB1*03:01 (DRB1*03:01; [3]): 0.7%; DRB1*07:01 (DRB1*07:01; [3]): 0.8%
3 | YTRYLRIHPQSWEHQ [Design M-12, peptide covering L2321Y, V2333E] | 0.700 | 3.876 | 0.200 | 0.155 | 40.700 | 59.728 | -7.303 | 6.084 | -8.351 | 9.370 | DRB1*15:01 (DRB1*15:01; [6]): 3.9%; DRB1*03:01 (DRB1*03:01; [6]): 0.2%; DRB1*07:01 (DRB1*07:01; [6]): 59.7%

Further lines, with some results ahead:

Row | DRB1*15:01 (DRB1*15:01; after 24 hours (H24)) [%] | DRB1*15:01 (DRB1*15:01; time 0 (H0)) [%] | DRB1*03:01 (DRB1*03:01; after 24 hours (H24)) [%] | DRB1*03:01 (DRB1*03:01; time 0 (H0)) [%] | DRB1*07:01 (DRB1*07:01; after 24 hours (H24)) [%] | DRB1*07:01 (DRB1*07:01; time 0 (H0)) [%] | Sequence | Difference to WT (Experimental Score) ([1]; after 24 hours (H24)) | Experimental Score ([1]; after 24 hours (H24)) | Difference to WT (Experimental Score) ([1]; time 0 (H0)) | Experimental Score ([1]; time 0 (H0)) | other results
4 | 0.000 | 0.000 | 0.000 | 0.100 | 0.000 | 0.100 | VNSLDPPLTTRYLRI [Design M-2, peptide covering L2321T] | -0.054 | 0.000 | -1.367 | 0.029 | DRB1*15:01 (DRB1*15:01; [4]): 0%; DRB1*03:01 (DRB1*03:01; [4]): 0.1%; DRB1*07:01 (DRB1*07:01; [4]): 0.1%
5 | 0.000 | 0.000 | 0.000 | 0.000 | 0.900 | 3.600 | VNSLDPPLYTRYLRI [Design M-3, peptide covering L2321Y] | 0.077 | 0.131 | -0.871 | 0.526 | DRB1*15:01 (DRB1*15:01; [5]): 0%; DRB1*03:01 (DRB1*03:01; [5]): 0%; DRB1*07:01 (DRB1*07:01; [5]): 3.6%
